In patent publication US4981954A, “Novel azoxy compounds and process for production thereof” (Kowa Company, Ltd., priority 1987, dated 1991):
In brackets after ≈: the same amount, converted by molar mass.

How the values were obtained:
Type in all cases: cell-based
[1] = tested on: Aspergillus fumigatus; assay: Antifungal activity, minimum growth inhibition concentration (MIC), Aspergillus fumigatus; settings: Sabouraud dextrose agar, 27° C., 2 to 4 days
Experimental: (§1) The minimum growth inhibition concentrations (MIC) of the present substances against eumycetes are as tabulated below.
(§2) Culture medium: Sabouraud dextrose agar
(§3) Culturing conditions: 27° C., 2 to 4 days

[2] = tested on: Trichophyton rubrum; assay: Antifungal activity, minimum growth inhibition concentration (MIC), Trichophyton rubrum; settings: Sabouraud dextrose agar, 27° C., 2 to 4 days
Experimental: as §1, §2, §3

[3] = tested on: Trichophyton mentagraphytes; assay: Antifungal activity, minimum growth inhibition concentration (MIC), Trichophyton mentagraphytes
Experimental: as §1, §2, §3

[4] = tested on: Cryptococcus neoformans; assay: Antifungal activity, minimum growth inhibition concentration (MIC), Cryptococcus neoformans; settings: Sabouraud dextrose agar, 27° C., 2 to 4 days
Experimental: as §1, §2, §3

[5] = tested on: Candida albicans; assay: Antifungal activity, minimum growth inhibition concentration (MIC), Candida albicans; settings: Sabouraud dextrose agar, 27° C., 2 to 4 days
Experimental: as §1, §2, §3

| Compound | MIC [1] [µg/mL] | MIC [2] [µg/mL] | MIC [3] [µg/mL] | MIC [4] [µg/mL] | MIC [5] [µg/mL] |
| --- | --- | --- | --- | --- | --- |
| CCCCC=C[N+]([O-])=NC(C)C(C)=O (stereo not shown) [KA-7367A] | 6.25 (≈ 31.5 µM) | 3.2 (≈ 16.1 µM) | 6.25 (≈ 31.5 µM) | 3.2 (≈ 16.1 µM) | 1.6 (≈ 8.07 µM) |
| CCCCC=C[N+]([O-])=NC(C)C(C)O (stereo not shown) [KA-7367B] | 100 (≈ 499 µM) | 100 (≈ 499 µM) | 100 (≈ 499 µM) | 100 (≈ 499 µM) | 50 (≈ 250 µM) |
